Results taken from the NIST ThermoML archive (doi:10.1021/je800636k).

How the values were obtained:
[1] = 101 kPa, Liquid; for electrical conductivity: Qcond 2400 VWR international / cell constant, 1.05; for viscosity: Concentric cylinders viscometry; for mass density: Vibrating tube method
[2] = xn = mol fraction of the nth substance listed; details: 101 kPa, Liquid, x2 = 0; for electrical conductivity: Qcond 2400 VWR international / cell constant, 1.05; for viscosity: Concentric cylinders viscometry; for mass density: Vibrating tube method

CCCCn1cc[n+](C)c1C.[N-]=[N+]=[N-] [1-butyl-2,3-dimethylimidazolium azide]
[1]
Details	electrical conductivity [S/m]	mass density [kg/m3]	viscosity [mPa·s]
303.15 K	0.0488	–	–
308.15 K	0.0756	–	–
313.15 K	0.112	1070.46	338.19
318.15 K	0.159	–	–
323.15 K	0.219	1065.14	176.04
328.15 K	0.294	–	–
333.15 K	0.383	1059.83	101.63
338.15 K	0.49	–	–
343.15 K	0.614	1054.52	63.6
348.15 K	0.756	–	–
353.15 K	0.918	1049.21	42.44
358.15 K	1.1	–	–
363.15 K	1.3	1043.9	29.82
368.15 K	1.52	–	–
373.15 K	–	1038.59	21.87

CCCCn1cc[n+](C)c1C.F[B-](F)(F)F [1-butyl-2,3-dimethylimidazolium tetrafluoroborate]
[1]
Details	electrical conductivity [S/m]	mass density [kg/m3]	viscosity [mPa·s]
303.15 K	0.0758	–	–
308.15 K	0.106	–	–
313.15 K	0.145	1182.05	364.17
318.15 K	0.194	–	–
323.15 K	0.254	1175.57	204.79
328.15 K	0.327	–	–
333.15 K	0.415	1169.08	124.34
338.15 K	0.518	–	–
343.15 K	0.639	1162.6	80.35
348.15 K	0.779	–	–
353.15 K	0.939	1156.12	54.65
358.15 K	1.12	–	–
363.15 K	1.32	1149.64	38.8
368.15 K	1.55	–	–
373.15 K	–	1143.15	28.56

CCCCn1cc[n+](C)c1C.F[B-](F)(F)F [1-butyl-2,3-dimethylimidazolium tetrafluoroborate] + CCCCn1cc[n+](C)c1C.[N-]=[N+]=[N-]
[2]
Details	electrical conductivity [S/m]	mass density [kg/m3]	viscosity [mPa·s]
303.15 K	0.0758	–	–
308.15 K	0.106	–	–
313.15 K	0.145	1182.05	364.17
318.15 K	0.194	–	–
323.15 K	0.254	1175.57	204.79
328.15 K	0.327	–	–
333.15 K	0.415	1169.08	124.34
338.15 K	0.518	–	–
343.15 K	0.639	1162.6	80.35
348.15 K	0.779	–	–
353.15 K	0.939	1156.12	54.65
358.15 K	1.12	–	–
363.15 K	1.32	1149.64	38.8
368.15 K	1.55	–	–
373.15 K	–	1143.15	28.56
